Reference: US12017975B2, “Myc-Max inhibitor compound therapeutics for cancer treatment, methods and uses associated therewith” (THE UNIVERSITY OF BRITISH COLUMBIA, priority 2018, dated 2024)
pIC50: −log10 of the molar value. Like-named read-outs stand apart in the source and are kept apart here.

Key:
[1] = system: Myc-Max transcriptional activity; test: Cignal c-Myc luciferase reporter assay in LNCaP cells; assay type: cell-based; details: Homo sapiens, LNCaP
Description: Cell transfection was performed using TransIT-2020™ transfection reagents according to the manufacturer's instructions (Mirus™). LNCaP cells were plated at 10000 cells per well and treated for 1 day with the indicated concentration of compound. Myc reporter activity was measured using the Cignal Myc Reporter Assay Kit™ from Qiagen™ (#336841) according to the manufacturer's instructions. For the UBE2C reporter assay, 22rv1 cells were plated at 10000 cells per well in 96-well plates in RPMI media supplemented with 5% charcoal-stripped serum (CSS) and treated for 1 day with 1 μM, 10 μM and 25 μM of compound.
Compounds were subjected to experimental evaluation using the commercially available transcriptional assay Cignal c-Myc luciferase reporter assay in LNCaP cells. […] A transiently transfected Myc-driven luciferase reporter allowed the monitoring of Myc-regulated signal in LNCaP upon treatment with the in silico identified compounds.

[2] = system: LNCaP cells; test: PARP cleavage (apoptosis) by Western blot in LNCaP cells; assay type: cell-based; details: TABLE 2, LNCaP cells
Description: After 48 hours of treatment with Myc compounds, LNCaP cells were lysed, and protein sample preparation followed by Western blotting were performed. Blots were incubated with primary antibodies against c-Myc, PARP (Sigma™ 084M4766V), PARP cleaved-Asp214 (Sigma™ SAB4500487) and β-Actin (Sigma™ A2066) overnight at 4° C., followed by appropriate peroxidase-conjugated secondary antibodies. β-actin served as an internal control. Visualization of the immunocomplexes was done by an enhanced chemiluminescence detection system (Millipore™) followed by exposure to X-ray films.
Apoptosis. Myc inhibition induces cell death by cell cycle arrest and apoptosis. Cleavage of PARP-1 by caspases is considered a hallmark of apoptosis and so we measured the ability of compounds to induce PARP cleavage after treatment.

[3] = target: T1, Myc-Max complex (Homo sapiens, UniProt P01106+P61244); test: Biolayer interferometry of Myc-Max binding to biotinylated E-box DNA; details: TABLE 2
T1 construct: GST tagged Myc (residues 368-454); Histidine tagged Max (residues 23-102); made in house; host or cells: E. coli BL21-DE3
T1 sequence (P01106 368-454): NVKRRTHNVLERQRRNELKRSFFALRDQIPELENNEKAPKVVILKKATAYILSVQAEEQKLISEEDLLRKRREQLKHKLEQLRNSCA
T1 sequence (P61244 23-102): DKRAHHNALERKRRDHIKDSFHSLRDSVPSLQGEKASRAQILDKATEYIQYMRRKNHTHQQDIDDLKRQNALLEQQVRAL
Description: Histidine tagged Max (residues 23-102) and GST tagged Myc (residues 368-454) were overexpressed in E. coli BL21-DE3 cells. Cells were co-lyzed in lysis buffer (20 mM Tris pH 8, 500 mM NaCl, 5% glycerol, 10 mM imidazole, 8 mM BME, 2.1 mM PMSF). After sonication and centrifugation, the complex was first purified by using a Ni-NTA affinity resin. After overnight dialysis to remove the imidazole, the protein sample was applied to a size exclusion chromatography equilibrated with (20 mM Tris pH 8, 150 mM NaCl, 5% glycerol, 0.2 mM TCEP). Fractions containing equal amount of Myc and Max on SDS PAGE were collected and used for the binding assay. The presence of both proteins was validated by Western blot using a specific antibody of each protein (Max (h2) Sc-8011 and c-Myc (9E10) Sc-40, Santa Cruz Biotechnology™)
The direct interaction between biotinylated E-box oligo ([…]) immobilized on a streptavidin biosensor and a purified Myc-Max complex (0.05 mg/ml) was quantified by BLI using OctetRED (ForteBio™). The DNA was first bound to the super-streptavidin sensors over 1000 sec at 25° C. The sensors were next moved into wells containing the reaction buffer (20 mM Tris pH 8, 150 mM NaCl, 5% glycerol, 0.2 mM TCEP, 5% dimethylsulfoxide) for measuring the baseline and next into the Myc-Max complex alone or in presence of the tested inhibitors to study the association of the complex to the DNA.
Direct Binding and disruption of protein-DNA interaction. To study the direct effect of our hit compounds VPC-70063 and VPC-70067 on the interaction between Myc-Max heterodimer and the DNA, we used Bio-Layer Interferometry (BLI, ForteBio™). This technique is a label-free technology allowing the measurement of direct interactions between two partners, one immobilized on a sensor and the other one present in a solution. We applied this technology to study the disruption of the interaction between a biotinylated E-box oligo immobilized on a streptavidin biosensor and a purified Myc-Max complex in presence of our compounds. Therefore, histidine-tagged Max (residues 23-102) and GST tagged Myc (residues 368-454) were overexpressed and co-purified. The fraction containing equal amount of Myc and Max was collected and used for the binding assay (FIG. 3B). The presence of both proteins was validated by Western blot using a specific antibody of each protein. […] Additionally, we tested the ability of our best compound VPC-70063 to disrupt the interaction of MYC/MAX with DNA in a dose dependent manner.

[4] = 25 μM, TABLE 3, read-out: % Inhibition 25 μM
[5] = 25 μM, TABLE 5, read-out: % Inhibition 25 μM

With CC(C)C[C@H](NC(=O)C(Cc1ccccc1)NC(=O)CNC(=O)[C@H](C)NC(=O)[C@@H](N)Cc1ccc(O)cc1)C(=O)OCc1ccccc1 (stereo partly drawn) [VPC-70413] as the compound, how does the pIC50 [1] read?
The pIC50 was 4.82.

What about the inhibition at 25 µM ([1]; read-out: % Inhibition 25 μM) of the same compound?
The inhibition at 25 µM was 114%.

What about the PARP effect [2] of the same compound?
The PARP effect was “weak”.

And the BLI binding [3]?
Its BLI binding is “weak”.

Which results are given for S=C(NCc1ccncc1)Nc1cc(Cl)cc(Cl)c1 [VPC-70084]?
inhibition at 25 µM [1, 4]: 80%; pIC50 ([1]; TABLE 2, assay not named, values match Myc-Max transcriptional activity, read-out: IC50): 4.70; PARP effect [2]: weak

For Cc1ccc(Nc2ccccc2N=S(=O)(O)c2ccc(C(=O)O)cc2)cc1 [VPC-70163], which inhibition at 25 µM [1, 5] is on record?
Its inhibition at 25 µM is 39%.

With O=C(CN1C(=O)NC2(CCCC2)C1=O)Nc1cccc(C(F)(F)F)c1 [VPC-70066] as the compound, how does the inhibition at 25 µM [1, 5] read?
Its inhibition at 25 µM is 65%.

What about the inhibition at 25 µM ([1]; 24 h, 25 μM, LNCaP cells, TABLE 1, read-out: Myc-Max transcriptional activity % inhibition (25 μM)) of the same compound?
Its inhibition at 25 µM is 65%.

For Cc1ccc(C(=O)NCC(=O)NCC(=O)Nc2ccc(F)c(F)c2F)cc1C [VPC-70236], which inhibition at 25 µM [1, 5] is on record?
Its inhibition at 25 µM is 32%.

Which inhibition at 5 µM ([1]; TABLE 3) does the source give for NC(=O)NCc1ccc(NC(=S)NCc2ccccc2)cc1 [VPC-70531] here?
Its inhibition at 5 µM is 0%.

And the inhibition at 10 µM ([1]; TABLE 3)?
Its inhibition at 10 µM is 27%.

What about the inhibition at 12.5 µM ([1]; TABLE 3) of the same compound?
The inhibition at 12.5 µM was 47%.

And the inhibition at 25 µM [1, 4]?
The inhibition at 25 µM was 81%.

With O=C1COc2ccc(S(=O)(=O)N3CCC(C(=O)NC4CCCCCC4)CC3)cc2N1 [VPC-70376] as the compound, how does the inhibition at 25 µM [1, 5] read?
The inhibition at 25 µM was 55%.

Cc1c(Cl)cc(NC(=S)NCc2ccccc2)cc1Cl [VPC-70530] was tested. Which inhibition at 12.5 µM ([1]; TABLE 3) did it give?
The inhibition at 12.5 µM was 94%.

With FC(F)Oc1ccc(CNC(=S)Nc2cccc(C(F)(F)F)c2)cc1 [VPC-70523] as the compound, how does the inhibition at 5 µM ([1]; TABLE 3) read?
Its inhibition at 5 µM is -4%.

What about the inhibition at 10 µM ([1]; TABLE 3) of the same compound?
Its inhibition at 10 µM is 104%.

And the inhibition at 25 µM [1, 4]?
The inhibition at 25 µM was 102%.

How did the inhibition at 25 µM [1, 5] turn out when O=C(NCCc1c[nH]c2ccccc12)C(=O)Nc1ccc(F)cc1 [VPC-70209] was run?
The inhibition at 25 µM was 52%.

For O=C(NCCOc1cccc(Cl)c1)NCC[C@H](O)C(F)(F)F [VPC-70266], which inhibition at 25 µM [1, 5] is on record?
Its inhibition at 25 µM is 38%.

For S=C(NCc1ccccc1)Nc1cccc(Cl)c1 [VPC-70477], which inhibition at 5 µM ([1]; TABLE 3) is on record?
The inhibition at 5 µM was 3%.

What about the inhibition at 10 µM ([1]; TABLE 3) of the same compound?
Its inhibition at 10 µM is 30%.

And the inhibition at 25 µM [1, 4]?
The inhibition at 25 µM was 99%.

CCn1c(CC(=O)Nc2cccc(C)c2)nnc1SCC(=O)Nc1cc(F)ccc1F [VPC-70392] was tested. Which inhibition at 25 µM [1, 5] did it give?
Its inhibition at 25 µM is 58%.

Which results are given for O=C(NCCc1ccccc1)C(=O)Nc1cc(C(F)(F)F)cc(C(F)(F)F)c1 [VPC-70527]?
inhibition at 5 µM ([1]; TABLE 3): 38%; inhibition at 10 µM ([1]; TABLE 3): 43%; inhibition at 25 µM [1, 4]: 92%

With O=C(NCCNS(=O)(=O)c1ccccc1)NNC(=O)c1cccc(C(F)(F)F)c1 [VPC-70549] as the compound, how does the inhibition at 12.5 µM ([1]; TABLE 3) read?
The inhibition at 12.5 µM was 75%.

Which inhibition at 25 µM [1, 5] does the source give for Cc1ccccc1OC[C@@H](O)C(=O)NCC1(O)C2CC3CC(C2)CC1C3 (stereo partly drawn) [VPC-70283] here?
The inhibition at 25 µM was 45%.

Which inhibition at 25 µM [1, 5] does the source give for C[C@@H](CCc1ccc(O)cc1)NC(=O)N[C@H]1CCOC2(CCCC2)C1 [VPC-70261] here?
Its inhibition at 25 µM is 35%.

How did the inhibition at 25 µM [1, 5] turn out when Cc1ccsc1CCNC(=O)CCS(=O)(=O)c1cc2c(cc1Cl)NC(=O)CO2 [VPC-70377] was run?
The inhibition at 25 µM was 52%.

COCCn1c(Cc2ccccc2)nnc1SCC(=O)c1ccc2c(c1)CCC(=O)N2 [VPC-70359] was tested. Which inhibition at 25 µM [1, 5] did it give?
The inhibition at 25 µM was 41%.

C[C@@H](NC1=NS(=O)(=O)c2ccccc21)C(=O)NCCCSc1ccccc1 [VPC-70258] was tested. Which inhibition at 25 µM [1, 5] did it give?
Its inhibition at 25 µM is 34%.

How did the inhibition at 25 µM [1, 4] turn out when Cc1c(CC(=O)NCC[C@@H](c2ccc(Cl)cc2)C(C)C)c(=O)oc2c(O)c(O)ccc12 [VPC-70393] was run?
Its inhibition at 25 µM is 96%.
